The values below come from patent US9504668B2 (priority 2013, dated 2016).

What all share (experiment): animal or person
What all share (assay type): in vivo

The test system of test [1] is Male Sprague-Dawley rats.
Test [2] concerns Mice. The note with it: Mus musculus, po, read-out: MES test ED50.
The test system of test [3] is Male Sprague-Dawley rats. The note with it: Rattus norvegicus, iv, read-out: Intervention Protection %.

Structures are written as SMILES.

Take `CO[C@@H](c1ccccc1F)[C@H](C)OC(N)=O` [Example 135, 1-(2-fluorophenyl)-(S)-1-methoxypropyl-(S)-2-carbamate]: in test [1] (rat, in vivo), the “Prevention Protection %” value is recorded as “^a20 (16.7%)”. In addition, the ED50 (as a rule, the dose that gives a 50% effect, or the effect in half of the subjects) in test [2] is 12.5 mg/kg. In test [3], the responders at 46 mg/kg amounted to 100%.
For the molecule `CO[C@@H](c1ccccc1I)[C@H](C)OC(N)=O` [Example 143, 1-(2-iodophenyl)-(S)-1-methoxypropyl-(S)-2-carbamate], the ED50 in test [1] (Rattus norvegicus, ip, read-out: Prevention ED50) was 19.6 mg/kg; in test [2], 15.7 mg/kg. Also, the “Prevention Peak Time” value in test [1] (rat, in vivo, ip) was 1 h. Moreover, the responders at 23 mg/kg in test [3] stood at 66.7%.
For the molecule `CC[C@H](OC(N)=O)[C@@H](OC)c1ccccc1I` [Example 151, 1-(2-iodophenyl)-(S)-1-methoxybutyl-(S)-2-carbamate], the “Prevention Protection %” value in test [1] (rat, in vivo) was “^a60 (100%)”. Further, the ED50 in test [2] was found to be 37 mg/kg. For the same molecule, in test [3], the responders at 46 mg/kg came to 100%.
